# According to patent US8192962B2, “Processes for detecting toxic substances” (Daikin Industries, Ltd., priority 2001, dated 2012):
# System: Unknown protein yeast genes
# Experiment: DNA chip mRNA expression in yeast, unknown protein yeast genes (Table 1)
# Format: cell-based, Saccharomyces cerevisiae S288C
# Summary of the method: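 First, S288C yeast grown in YPD at 25° C. are dosed in log phase with one toxicant (growth-inhibiting, not lethal) for 2 h. Next, total RNA is extracted and poly(A) mRNA isolated and reverse-transcribed with Cy3/Cy5-dUTP. Finally, whole-genome chip fluorescence is read relative to unexposed cells.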
smiles,measurement,setting,value
"N#Cc1c(Cl)c(Cl)c(Cl)c(C#N)c1Cl [(9), 2,4,5,6-tetrachloro-1,3-benzenedicarbonitrile]",The level of expressed mRNA in the presence of chemical substance/The level of expressed mRNA in the absence of chemical substance,"yeast gene YAL053W, incubated two hours with chemical substance",1.4
same,The level of expressed mRNA in the presence of chemical substance/The level of expressed mRNA in the absence of chemical substance,yeast gene YBL048W,7.2
same,The level of expressed mRNA in the presence of chemical substance/The level of expressed mRNA in the absence of chemical substance,yeast gene YBL107C,1.0
same,The level of expressed mRNA in the presence of chemical substance/The level of expressed mRNA in the absence of chemical substance,"yeast gene YDL072C, incubated two hours with chemical substance",1.1
same,The level of expressed mRNA in the presence of chemical substance/The level of expressed mRNA in the absence of chemical substance,yeast gene YDL146W,0.8
same,The level of expressed mRNA in the presence of chemical substance/The level of expressed mRNA in the absence of chemical substance,"yeast gene YDL204W, incubated two hours with chemical substance",2.3
same,The level of expressed mRNA in the presence of chemical substance/The level of expressed mRNA in the absence of chemical substance,"yeast gene YDL222C, incubated two hours with chemical substance",1.9
same,The level of expressed mRNA in the presence of chemical substance/The level of expressed mRNA in the absence of chemical substance,yeast gene YDR057W,1.5
same,The level of expressed mRNA in the presence of chemical substance/The level of expressed mRNA in the absence of chemical substance,yeast gene YDR286C,0.8
same,The level of expressed mRNA in the presence of chemical substance/The level of expressed mRNA in the absence of chemical substance,"yeast gene YDR330W, incubated two hours with chemical substance",3.9
same,The level of expressed mRNA in the presence of chemical substance/The level of expressed mRNA in the absence of chemical substance,"yeast gene YDR391C, incubated two hours with chemical substance",1.5
same,The level of expressed mRNA in the presence of chemical substance/The level of expressed mRNA in the absence of chemical substance,"yeast gene YDR411C, incubated two hours with chemical substance",0.7
same,The level of expressed mRNA in the presence of chemical substance/The level of expressed mRNA in the absence of chemical substance,"yeast gene YDR511W, incubated two hours with chemical substance",2.5
same,The level of expressed mRNA in the presence of chemical substance/The level of expressed mRNA in the absence of chemical substance,"yeast gene YDR545W, incubated two hours with chemical substance",1.8
same,The level of expressed mRNA in the presence of chemical substance/The level of expressed mRNA in the absence of chemical substance,"yeast gene YEL001C, incubated two hours with chemical substance",2.0
same,The level of expressed mRNA in the presence of chemical substance/The level of expressed mRNA in the absence of chemical substance,"yeast gene YER004W, incubated two hours with chemical substance",4.5
same,The level of expressed mRNA in the presence of chemical substance/The level of expressed mRNA in the absence of chemical substance,"yeast gene YER035W, incubated two hours with chemical substance",1.2
same,The level of expressed mRNA in the presence of chemical substance/The level of expressed mRNA in the absence of chemical substance,"yeast gene YER079W, incubated two hours with chemical substance",5.3
same,The level of expressed mRNA in the presence of chemical substance/The level of expressed mRNA in the absence of chemical substance,"yeast gene YER106W, incubated two hours with chemical substance",0.4
same,The level of expressed mRNA in the presence of chemical substance/The level of expressed mRNA in the absence of chemical substance,"yeast gene YER158C, incubated two hours with chemical substance",2.1
same,The level of expressed mRNA in the presence of chemical substance/The level of expressed mRNA in the absence of chemical substance,"yeast gene YER163C, incubated two hours with chemical substance",5.4
same,The level of expressed mRNA in the presence of chemical substance/The level of expressed mRNA in the absence of chemical substance,"yeast gene YER175C, incubated two hours with chemical substance",1.9
same,The level of expressed mRNA in the presence of chemical substance/The level of expressed mRNA in the absence of chemical substance,"yeast gene YFL006W, incubated two hours with chemical substance",3.2
same,The level of expressed mRNA in the presence of chemical substance/The level of expressed mRNA in the absence of chemical substance,"yeast gene YFL010C, incubated two hours with chemical substance",3.1
same,The level of expressed mRNA in the presence of chemical substance/The level of expressed mRNA in the absence of chemical substance,yeast gene YFL017C,0.8
same,The level of expressed mRNA in the presence of chemical substance/The level of expressed mRNA in the absence of chemical substance,yeast gene YFL024C,0.5
same,The level of expressed mRNA in the presence of chemical substance/The level of expressed mRNA in the absence of chemical substance,"yeast gene YFL032W, incubated two hours with chemical substance",0.5
same,The level of expressed mRNA in the presence of chemical substance/The level of expressed mRNA in the absence of chemical substance,yeast gene YFR008W,1.5
same,The level of expressed mRNA in the presence of chemical substance/The level of expressed mRNA in the absence of chemical substance,"yeast gene YGL037C, incubated two hours with chemical substance",2.1
same,The level of expressed mRNA in the presence of chemical substance/The level of expressed mRNA in the absence of chemical substance,"yeast gene YGL047W, incubated two hours with chemical substance",4.5
same,The level of expressed mRNA in the presence of chemical substance/The level of expressed mRNA in the absence of chemical substance,"yeast gene YGL053W, incubated two hours with chemical substance",3.3
same,The level of expressed mRNA in the presence of chemical substance/The level of expressed mRNA in the absence of chemical substance,yeast gene YGL121C,7.0
same,The level of expressed mRNA in the presence of chemical substance/The level of expressed mRNA in the absence of chemical substance,"yeast gene YGR101W, incubated two hours with chemical substance",4.0
same,The level of expressed mRNA in the presence of chemical substance/The level of expressed mRNA in the absence of chemical substance,yeast gene YGR110W,6.4
same,The level of expressed mRNA in the presence of chemical substance/The level of expressed mRNA in the absence of chemical substance,"yeast gene YGR130C, incubated two hours with chemical substance",2.0
same,The level of expressed mRNA in the presence of chemical substance/The level of expressed mRNA in the absence of chemical substance,"yeast gene YGR154C, incubated two hours with chemical substance",25.2
same,The level of expressed mRNA in the presence of chemical substance/The level of expressed mRNA in the absence of chemical substance,yeast gene YHL042W,0.8
same,The level of expressed mRNA in the presence of chemical substance/The level of expressed mRNA in the absence of chemical substance,"yeast gene YHR138C, incubated two hours with chemical substance",5.3
same,The level of expressed mRNA in the presence of chemical substance/The level of expressed mRNA in the absence of chemical substance,"yeast gene YHR199C, incubated two hours with chemical substance",8.6
same,The level of expressed mRNA in the presence of chemical substance/The level of expressed mRNA in the absence of chemical substance,"yeast gene YIL023C, incubated two hours with chemical substance",3.5
same,The level of expressed mRNA in the presence of chemical substance/The level of expressed mRNA in the absence of chemical substance,"yeast gene YIL024C, incubated two hours with chemical substance",2.2
same,The level of expressed mRNA in the presence of chemical substance/The level of expressed mRNA in the absence of chemical substance,"yeast gene YIL041W, incubated two hours with chemical substance",1.8
same,The level of expressed mRNA in the presence of chemical substance/The level of expressed mRNA in the absence of chemical substance,"yeast gene YIL087C, incubated two hours with chemical substance",2.4
same,The level of expressed mRNA in the presence of chemical substance/The level of expressed mRNA in the absence of chemical substance,"yeast gene YIL117C, incubated two hours with chemical substance",2.3
same,The level of expressed mRNA in the presence of chemical substance/The level of expressed mRNA in the absence of chemical substance,"yeast gene YJL057C, incubated two hours with chemical substance",7.3
same,The level of expressed mRNA in the presence of chemical substance/The level of expressed mRNA in the absence of chemical substance,"yeast gene YJL066C, incubated two hours with chemical substance",2.0
same,The level of expressed mRNA in the presence of chemical substance/The level of expressed mRNA in the absence of chemical substance,"yeast gene YJL082W, incubated two hours with chemical substance",1.4
same,The level of expressed mRNA in the presence of chemical substance/The level of expressed mRNA in the absence of chemical substance,"yeast gene YJL108C, incubated two hours with chemical substance",0.3
same,The level of expressed mRNA in the presence of chemical substance/The level of expressed mRNA in the absence of chemical substance,"yeast gene YJL151C, incubated two hours with chemical substance",0.5
same,The level of expressed mRNA in the presence of chemical substance/The level of expressed mRNA in the absence of chemical substance,"yeast gene YJL152W, incubated two hours with chemical substance",0.3
same,The level of expressed mRNA in the presence of chemical substance/The level of expressed mRNA in the absence of chemical substance,"yeast gene YJL161W, incubated two hours with chemical substance",3.1
same,The level of expressed mRNA in the presence of chemical substance/The level of expressed mRNA in the absence of chemical substance,"yeast gene YJL171C, incubated two hours with chemical substance",1.0
same,The level of expressed mRNA in the presence of chemical substance/The level of expressed mRNA in the absence of chemical substance,"yeast gene YJR008W, incubated two hours with chemical substance",1.8
same,The level of expressed mRNA in the presence of chemical substance/The level of expressed mRNA in the absence of chemical substance,yeast gene YKL065C,3.1
same,The level of expressed mRNA in the presence of chemical substance/The level of expressed mRNA in the absence of chemical substance,yeast gene YKL071W,162.2
same,The level of expressed mRNA in the presence of chemical substance/The level of expressed mRNA in the absence of chemical substance,"yeast gene YKL086W, incubated two hours with chemical substance",8.2
same,The level of expressed mRNA in the presence of chemical substance/The level of expressed mRNA in the absence of chemical substance,yeast gene YKL147C,1.0
same,The level of expressed mRNA in the presence of chemical substance/The level of expressed mRNA in the absence of chemical substance,"yeast gene YKL151C, incubated two hours with chemical substance",3.3
same,The level of expressed mRNA in the presence of chemical substance/The level of expressed mRNA in the absence of chemical substance,"yeast gene YKL153W, incubated two hours with chemical substance",0.8
